According to patent US20250197372A1 (priority 2020, published 2025):
Where two headings read alike, the source gives them in different places.

Legend:
Format in all cases: biochemical
[1] = target: T1, recombinant alpha-glucosidase I (human full-length glucosidase I, Glu 1) (Homo sapiens, UniProt Q13724); assay: Alpha-glucosidase I assay (Amplex Red glucose detection, synthetic trisaccharide substrate)
T1 construct: 6-His (C); made in house; host or cells: HEK-293T cells transduced with BacMam virus (virus raised in Sf9)
T1 sequence (Q13724 1-837): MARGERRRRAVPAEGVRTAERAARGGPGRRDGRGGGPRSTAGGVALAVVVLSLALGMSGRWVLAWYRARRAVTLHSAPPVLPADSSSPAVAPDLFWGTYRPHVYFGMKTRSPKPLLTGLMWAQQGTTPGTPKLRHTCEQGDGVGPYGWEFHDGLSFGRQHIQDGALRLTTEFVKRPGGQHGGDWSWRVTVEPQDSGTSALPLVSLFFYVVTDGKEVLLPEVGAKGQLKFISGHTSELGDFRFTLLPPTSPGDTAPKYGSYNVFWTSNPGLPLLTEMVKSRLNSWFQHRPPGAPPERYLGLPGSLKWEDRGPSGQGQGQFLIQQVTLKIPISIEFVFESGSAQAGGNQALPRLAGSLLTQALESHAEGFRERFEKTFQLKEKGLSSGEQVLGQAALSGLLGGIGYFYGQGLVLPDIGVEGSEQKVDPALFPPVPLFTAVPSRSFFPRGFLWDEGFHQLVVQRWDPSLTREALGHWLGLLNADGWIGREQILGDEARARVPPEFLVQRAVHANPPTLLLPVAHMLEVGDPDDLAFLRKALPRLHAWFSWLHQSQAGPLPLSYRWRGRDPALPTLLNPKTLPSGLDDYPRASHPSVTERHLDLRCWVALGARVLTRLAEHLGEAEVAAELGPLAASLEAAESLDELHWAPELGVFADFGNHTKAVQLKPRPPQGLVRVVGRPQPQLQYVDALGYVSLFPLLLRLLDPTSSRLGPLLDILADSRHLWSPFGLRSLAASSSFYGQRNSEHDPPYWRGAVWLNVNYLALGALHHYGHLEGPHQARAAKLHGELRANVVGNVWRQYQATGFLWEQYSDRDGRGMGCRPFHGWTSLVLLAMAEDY
Method in brief: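 Human full-length glucosidase I, His-tagged, […] and Ni-purified. Enzyme preincubated with compound dilutions 60 min at 37° C, then synthetic trisaccharide substrate 90 min at 37° C; stopped with 1.5M Tris pH 8.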

[2] = target: T2, recombinant alpha-glucosidase II (murine full-length glucosidase II, alpha and beta subunits, Glu 2) (Mus musculus, UniProt Q8BHN3); assay: Alpha-glucosidase II assay (4-methylumbelliferyl-alpha-D-pyranoside substrate, fluorescence)
T2 construct: made in house; host or cells: HEK-293T cells transduced with BacMam viruses (75% alpha, 25% beta); protein harvested from culture supernatant
T2 sequence (O08795 15-521): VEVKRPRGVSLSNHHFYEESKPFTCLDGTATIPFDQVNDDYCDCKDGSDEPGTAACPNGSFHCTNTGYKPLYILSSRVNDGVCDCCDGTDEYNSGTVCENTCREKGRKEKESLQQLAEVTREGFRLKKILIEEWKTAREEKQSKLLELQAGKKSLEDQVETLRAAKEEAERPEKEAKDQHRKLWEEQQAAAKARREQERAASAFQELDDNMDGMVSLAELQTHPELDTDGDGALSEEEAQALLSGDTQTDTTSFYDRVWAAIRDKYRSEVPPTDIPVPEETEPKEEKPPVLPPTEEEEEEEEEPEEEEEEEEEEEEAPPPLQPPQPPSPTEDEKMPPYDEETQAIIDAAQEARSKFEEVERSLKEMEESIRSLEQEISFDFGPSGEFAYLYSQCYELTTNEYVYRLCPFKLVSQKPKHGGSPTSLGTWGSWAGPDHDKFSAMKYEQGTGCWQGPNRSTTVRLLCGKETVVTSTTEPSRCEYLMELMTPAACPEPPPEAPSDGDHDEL
T2 sequence (Q8BHN3 33-944): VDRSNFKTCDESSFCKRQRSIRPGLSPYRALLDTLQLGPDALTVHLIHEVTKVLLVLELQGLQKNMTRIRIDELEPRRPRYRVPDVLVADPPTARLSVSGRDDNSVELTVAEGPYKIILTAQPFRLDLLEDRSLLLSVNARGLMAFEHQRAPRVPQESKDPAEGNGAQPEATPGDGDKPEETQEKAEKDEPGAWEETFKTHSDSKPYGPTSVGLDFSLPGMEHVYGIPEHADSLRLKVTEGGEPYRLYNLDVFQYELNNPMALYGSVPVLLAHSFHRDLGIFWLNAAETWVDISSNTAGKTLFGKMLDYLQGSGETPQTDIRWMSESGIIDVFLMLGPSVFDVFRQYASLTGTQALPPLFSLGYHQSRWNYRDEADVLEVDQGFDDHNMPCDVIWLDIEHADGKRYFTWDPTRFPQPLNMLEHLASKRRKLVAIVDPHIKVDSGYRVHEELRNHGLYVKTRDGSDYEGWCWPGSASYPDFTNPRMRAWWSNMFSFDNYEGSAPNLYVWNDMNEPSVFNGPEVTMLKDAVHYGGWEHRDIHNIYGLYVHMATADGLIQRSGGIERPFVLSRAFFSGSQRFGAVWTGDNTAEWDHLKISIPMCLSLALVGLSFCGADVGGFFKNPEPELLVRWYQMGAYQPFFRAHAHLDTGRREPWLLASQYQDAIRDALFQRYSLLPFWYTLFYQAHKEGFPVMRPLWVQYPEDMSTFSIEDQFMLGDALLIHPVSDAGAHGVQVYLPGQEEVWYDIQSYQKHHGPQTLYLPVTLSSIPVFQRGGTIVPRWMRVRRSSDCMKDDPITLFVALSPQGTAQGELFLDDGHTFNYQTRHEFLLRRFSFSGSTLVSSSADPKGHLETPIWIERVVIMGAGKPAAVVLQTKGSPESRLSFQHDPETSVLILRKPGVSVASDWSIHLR

[3] = target: rat maltase (partially purified alpha-glucosidase from intestinal rat powder); assay: Intestinal alpha-glucosidase assay, maltose substrate (Glucose GO Kit)
Method in brief: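 Partially purified alpha-glucosidase from rat intestinal powder was preincubated 60 min at 37 °C with serial compound dilutions, then given maltose or sucrose and incubated 30 min at 37 °C.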

[4] = Glucosidase 2, read-out: Glu2 IC50
[5] = Glucosidase 1, read-out: Glu 1 IC50

| SMILES | IC50 [1] [µM] | IC50 [2, 4] [µM] | IC50 [3] [µM] | IC50 [1, 5] [µM] | IC50 [2] [µM] |
| --- | --- | --- | --- | --- | --- |
| OC[C@@H]1[C@@H](O)[C@H](O)[C@@H](O)CN1CCCCCCNc1cc(-c2cccnn2)cc(C2CC2)c1 [Compound 1008, (2R,3R,4R,5S)-1-(6-{[3-cyclopropyl-5-(pyridazin-3-yl)phenyl]amino}hexyl)-2-(hydroxymethyl)piperidine-3,4,5-triol] | 0.103 | 0.012 | 0.006 |  |  |
| OC[C@@H]1[C@@H](O)[C@H](O)[C@@H](O)CN1CCCCCCNc1cc(Cl)cc(CN2CCCO2)c1 [Compound 1183, (2R,3R,4R,5S)-1-[6-({3-chloro-5-[(1,2-oxazolidin-2-yl)methyl]phenyl}amino)hexyl]-2-(hydroxymethyl)piperidine-3,4,5-triol] |  | 0.004 | 0.015 | 0.154 |  |
| [N-]=[N+]=Nc1ccc(NCCc2ccc(CCN3C[C@@H](O)[C@H](O)[C@@H](O)[C@@H]3CO)c3ccccc23)c([N+](=O)[O-])c1 (stereo in doubt) [Compound 1178, (2S,3S,4S,5R)-1-[2-(4-{2-[(4-azido-2-nitrophenyl)amino]ethyl}naphthalen-1-yl)ethyl]-2-(hydroxymethyl)piperidine-3,4,5-triol] |  | 9.36 | 3.48 | 2.73 |  |
| COc1cc(NCCc2ccc(CCN3C[C@H](O)[C@@H](O)[C@H](O)[C@H]3CO)cc2)cc(-c2ccco2)c1 [Compound 1153, (2R,3R,4R,5S)-1-{2-[4-(2-{[3-(furan-2-yl)-5-methoxy-phenyl]amino}ethyl)phenyl]ethyl}-2-(hydroxymethyl)piperidine-3,4,5-triol] |  | 0.544 | 0.321 | 1.36 |  |
| [N-]=[N+]=Nc1ccc(NCCn2cc(CCN3C[C@H](O)[C@@H](O)[C@H](O)[C@H]3CO)c3ccccc32)c([N+](=O)[O-])c1 [Compound 1177, (2R,3R,4R,5S)-1-[2-(1-{2-[(4-azido-2-nitrophenyl)amino]ethyl}-1H-indol-3-yl)ethyl]-2-(hydroxymethyl)piperidine-3,4,5-triol] |  | 0.065 | 0.032 | 0.374 |  |
| COc1cc(NCCc2ccc(CCN3C[C@H](O)[C@@H](O)[C@H](O)[C@H]3CO)cc2)cc(-c2cccnn2)c1 [Compound 1157, (2R,3R,4R,5S)-2-(hydroxymethyl)-1-{2-[4-(2-{[3-methoxy-5-(pyridazin-3-yl)phenyl]amino}ethyl)phenyl]ethyl}piperidine-3,4,5-triol] |  | 0.004 | 0.107 | 0.336 |  |
| O=[N+]([O-])c1cc(-c2ccccc2)ccc1NCCCCCCN1C[C@H](O)[C@@H](O)[C@H](O)[C@H]1CO [Compound 1138, (2R,3R,4R,5S)-2-(hydroxymethyl)-1-[6-({3-nitro-[1,1′-biphenyl]-4-yl}amino)hexyl]piperidine-3,4,5-triol] | 0.115 |  | < 0.001 |  | 0.002 |
| CS(=O)(=O)Nc1ccc(NCCCCCCN2C[C@H](O)[C@@H](O)[C@H](O)[C@H]2CO)c([N+](=O)[O-])c1 [Compound 1300, N-[3-nitro-4-({6-[(2R,3R,4R,5S)-3,4,5-trihydroxy-2-(hydroxy-methyl)piperidin-1-yl]hexyl}amino)phenyl]methanesulfonamide] | 0.157 | 0.014 | < 0.01 |  |  |
| Cc1nc2cc(-c3ncccn3)ccc2n1CCCCCCN1C[C@H](O)[C@@H](O)[C@H](O)[C@H]1CO [Compound 1339, (2R,3R,4R,5S)-2-(hydroxymethyl)-1-{6-[2-methyl-5-(pyrimidin-2-yl)-1H-1,3-benzodiazol-1-yl]hexyl}piperidine-3,4,5-triol] | 0.078 | 0.194 | 0.014 |  |  |
